Measured values: DBAASP
≈ marks a conversion by molar mass, not a printed value. Blank lines part the entries; values can stand above or below the compound they belong to.

Legend:
Experiment in all cases: ≥ marks a high value that may be exact or a test limit, other limits are often not marked, values filed in µg/mL are converted to µM
[1] = tested on: Bacillus subtilis IFO 3037
[2] = tested on: Escherichia coli IFO 14237
[3] = tested on: Pseudomonas aeruginosa IFO 12582
[4] = tested on: Staphylococcus aureus IFO 12732
Bacillus megaterium Bm11 = tested on: Bacillus megaterium Bm11
Escherichia coli ML-35 = tested on: Escherichia coli ML-35
[5] = tested on: Pseudomonas aeruginosa ATCC 27853
[6] = tested on: Salmonella enterica subsp. enterica serovar Typhimurium ATCC 14028
[7] = tested on: Staphylococcus aureus 710A
[8] = tested on: Bacillus subtilis DSM 347
[9] = tested on: Escherichia coli DSM 1116
[10] = tested on: Franconibacter helveticus DSM 18390
[11] = tested on: Staphylococcus xylosus DSM 20287
[12] = tested on: Escherichia coli ATCC 25922
[13] = tested on: Escherichia coli KpC+001812446
[14] = tested on: Escherichia coli KpC+002101123
[15] = tested on: Klebsiella pneumoniae ATCC 13883
[16] = tested on: Klebsiella pneumoniae KpC+001825971
[17] = tested on: Staphylococcus aureus ATCC 25923
Staphylococcus aureus MR = tested on: Staphylococcus aureus MR
Aureobasidium pullulans = tested on: Aureobasidium pullulans
[18] = tested on: Candida albicans ATCC 10231
[19] = tested on: Corynebacterium glutamicum ATCC 13032
[20] = tested on: Staphylococcus aureus ATCC 9144
[21] = tested on: Escherichia coli DH5alpha
[22] = tested on: Klebsiella pneumoniae KAY 2026
[23] = tested on: Pseudomonas aeruginosa ATCC 15692
[24] = tested on: Staphylococcus aureus Newman
[25] = tested on: Staphylococcus epidermidis ATCC 35984
[26] = tested on: Streptococcus mutans JM11
[27] = tested on: Batrachochytrium dendrobatidis
[28] = tested on: Bacillus cereus CMCC 6303
[29] = tested on: Cronobacter sakazakii ATCC 29544
Escherichia coli UB1005 = tested on: Escherichia coli UB1005
[30] = tested on: Listeria monocytogenes CMCC 54004
[31] = tested on: Salmonella enterica subsp. enterica CMCC 47020
[32] = tested on: Salmonella enterica subsp. enterica serovar Pullorum C79-13
[33] = tested on: Salmonella enterica subsp. enterica serovar Typhi CMCC 50071
[34] = tested on: Salmonella enterica subsp. enterica serovar Typhimurium C77-31
[35] = tested on: Staphylococcus aureus CMCC 26074

- MIC [1]: ≥ 50 µM
- MIC [2]: 6.25 µM (≈ 25.5 µg/mL)
- MIC [3]: 25 µM (≈ 102 µg/mL)
- MIC [4]: 6.25 µM (≈ 25.5 µg/mL)
Compound: CC[C@H](C)[C@H](NC(=O)[C@H](CC(N)=O)NC(=O)[C@H](CC(C)C)NC(=O)[C@H](CCCCN)NC(=O)[C@@H](NC(=O)[C@@H](NC(=O)[C@H](CC(=O)O)NC(=O)[C@@H](N)Cc1ccccc1)[C@@H](C)CC)[C@@H](C)O)C(=O)N[C@@H](CCCCN)C(=O)N[C@@H](CCCCN)C(=O)N[C@@H](CC(C)C)C(=O)N[C@H](C(=O)N[C@@H](CCCCN)C(=O)N[C@@H](C)C(=O)N[C@H](C(=O)N[C@H]1CSSC[C@@H](C(=O)N[C@@H](CCCCN)C(=O)N[C@H](C(=O)N[C@@H](CC(C)C)C(=O)N[C@@H](Cc2ccccc2)C(=O)N[C@@H](CC(=O)O)C(=O)N[C@@H](CCCCN)C(=O)N[C@@H](CCCCN)C(=O)N[C@@H](CCCCN)C(=O)N[C@@H](CCC(N)=O)C(=O)N[C@@H](CCC(=O)O)C(=O)O)C(C)C)NC(=O)[C@H](CCSC)NC(=O)[C@H](CO)NC(=O)[C@H](C)NC(=O)CNC(=O)[C@H](CCCCN)NC(=O)[C@H](CO)NC(=O)[C@H]([C@@H](C)CC)NC(=O)[C@H](C(C)C)NC(=O)[C@H](CCCCN)NC1=O)[C@@H](C)O)[C@@H](C)O [FDITKLNIKKLTKATCKVISKGASMCKVLFDKKKQE]

- MIC (Bacillus megaterium Bm11): ≥ 32 µM
- MIC (Escherichia coli ML-35): 4 µM (≈ 8.11 µg/mL)
- MIC [5]: 16 µM (≈ 32.5 µg/mL)
- MIC [6]: > 32 µM
- MIC [7]: ≥ 32 µM
Compound: CC[C@H](C)[C@H](NC(=O)[C@H](CCCCN)NC(=O)[C@H](CCCCN)NC(=O)[C@H](CC(C)C)NC(=O)[C@H](CC(C)C)NC(=O)CN)C(=O)NCC(=O)N[C@@H](CCCCN)C(=O)N[C@@H](CCCCN)C(=O)N[C@@H](C)C(=O)N[C@@H](CCCCN)C(=O)N[C@@H](CCCCN)C(=O)N[C@@H](C)C(=O)NCC(=O)N[C@@H](CCCCN)C(=O)N[C@@H](CCCCN)C(=O)N[C@@H](CC(C)C)C(=O)NCC(=O)N[C@@H](Cc1ccc(O)cc1)C(N)=O [GLLKKIGKKAKKAGKKLGY]

- MIC [8]: 1.08 µM (≈ 2.83 µg/mL)
- MIC [9]: 2.16 µM (≈ 5.65 µg/mL)
- MIC [10]: 1.08 µM (≈ 2.83 µg/mL)
- MIC [11]: 0.764 µM (≈ 2 µg/mL)
Compound: CC[C@H](C)[C@H](N)C(=O)N[C@@H](C)C(=O)NCC(=O)N[C@@H](CCCCN)C(=O)N[C@H](C(=O)N[C@@H](C)C(=O)N[C@@H](CCCCN)C(=O)N[C@H](C(=O)N[C@@H](C)C(=O)NCC(=O)N[C@@H](CCCCN)C(=O)N[C@H](C(=O)N[C@@H](C)C(=O)N[C@@H](CCCCN)C(=O)N[C@H](C(=O)N[C@@H](C)C(=O)NCC(=O)N[C@@H](CCCCN)C(=O)N[C@H](C(=O)N[C@@H](C)C(=O)N[C@@H](CCCCN)C(=O)N[C@H](C(=O)N[C@@H](C)C(=O)NCC(=O)N[C@@H](CCCCN)C(=O)N[C@H](C(=O)N[C@@H](C)C(N)=O)[C@@H](C)CC)[C@@H](C)CC)[C@@H](C)CC)[C@@H](C)CC)[C@@H](C)CC)[C@@H](C)CC)[C@@H](C)CC [IAGKIAKIAGKIAKIAGKIAKIAGKIA]

- MIC [12]: 34 µM (≈ 63.5 µg/mL)
- MIC [13]: ≥ 34 µM
- MIC [14]: 9 µM (≈ 16.8 µg/mL)
- MIC [15]: ≥ 34 µM
- MIC [16]: ≥ 34 µM
- MIC [5]: > 34 µM
- MIC [17]: 9 µM (≈ 16.8 µg/mL)
- MIC (Staphylococcus aureus MR): 17 µM (≈ 31.7 µg/mL)
Compound: CC[C@H](C)[C@H](NC(=O)[C@@H](NC(=O)[C@H](CO)NC(=O)[C@H](C)NC(=O)[C@@H](NC(=O)[C@H](CCCCN)NC(=O)[C@H](CCCCN)NC(=O)[C@@H](NC(=O)[C@@H](NC(=O)[C@H](CC(=O)O)NC(=O)[C@H](Cc1ccccc1)NC(=O)[C@H](CC(C)C)NC(=O)CNC(=O)[C@H](Cc1cnc[nH]1)NC(=O)CNC(=O)CN)C(C)C)[C@@H](C)CC)C(C)C)C(C)C)C(=O)NCC(=O)NCC(=O)N[C@@H](CC(C)C)C(N)=O [GGHGLFDVIKKVASVIGGL]

- MIC (Aureobasidium pullulans): 12.5 µM (≈ 19.3 µg/mL)
- MIC [18]: 6.3 µM (≈ 9.71 µg/mL)
- MIC [19]: 0.4 µM (≈ 0.617 µg/mL)
- MIC [12]: 3.1 µM (≈ 4.78 µg/mL)
- MIC [5]: 1.6 µM (≈ 2.47 µg/mL)
- MIC [20]: 12.5 µM (≈ 19.3 µg/mL)
Compound: CC(C)[C@H](NC(=O)[C@H](CCCCN)NC(=O)[C@H](C)NC(=O)[C@@H](NC(=O)[C@@H](NC(=O)[C@H](CCCN=C(N)N)NC(=O)[C@H](CCCN=C(N)N)NC(=O)[C@H](Cc1c[nH]c2ccccc12)NC(=O)[C@H](Cc1c[nH]c2ccccc12)NC(=O)CN)[C@@H](C)O)C(C)C)C(=O)N[C@@H](CCCN=C(N)N)C(=O)N[C@@H](CCCCN)C(N)=O [GWWRRTVAKVRK]

- MIC [21]: 5.47 µM (≈ 8.16 µg/mL)
- MIC [22]: 2.98 µM (≈ 4.44 µg/mL)
- MIC [23]: 14.4 µM (≈ 21.5 µg/mL)
- MIC [24]: 5.62 µM (≈ 8.39 µg/mL)
- MIC [25]: 5.11 µM (≈ 7.62 µg/mL)
- MIC [26]: 2.86 µM (≈ 4.26 µg/mL)
Compound: CC[C@H](C)[C@H](NC(=O)[C@@H](N)Cc1ccccc1)C(=O)N[C@@H](CCCN=C(N)N)C(=O)N[C@@H](CCCCN)C(=O)N[C@@H](Cc1ccccc1)C(=O)N[C@@H](CC(C)C)C(=O)N[C@@H](CCCCN)C(=O)N[C@@H](CCCCN)C(=O)N[C@@H](Cc1c[nH]c2ccccc12)C(=O)N[C@@H](CC(C)C)C(=O)N[C@@H](CC(C)C)C(N)=O [FIRKFLKKWLL]

- MIC [27]: 28.6 µM (≈ 40 µg/mL)
Compound: CC[C@H](C)[C@H](NC(=O)[C@@H](NC(=O)[C@@H]1CCCN1C(=O)[C@H](CC(C)C)NC(=O)[C@@H](N)Cc1ccccc1)[C@@H](C)CC)C(=O)N[C@@H](C)C(=O)N[C@@H](CO)C(=O)N[C@@H](CC(C)C)C(=O)N[C@@H](CC(C)C)C(=O)NCC(=O)N[C@@H](CCCCN)C(=O)N[C@@H](CC(C)C)C(=O)N[C@@H](CC(C)C)C(N)=O [FLPIIASLLGKLL]

- MIC [28]: ≥ 128 µM
- MIC [29]: ≥ 256 µM
- MIC (Escherichia coli UB1005): ≥ 256 µM
- MIC [30]: ≥ 128 µM
- MIC [31]: ≥ 256 µM
- MIC [32]: ≥ 256 µM
- MIC [33]: ≥ 128 µM
- MIC [6]: 128 µM (≈ 213 µg/mL)
- MIC [34]: ≥ 256 µM
- MIC [17]: > 256 µM
- MIC [35]: ≥ 256 µM
Compound: CC[C@H](C)[C@H](NC(=O)[C@H](CCCN=C(N)N)NC(=O)[C@H](CCCCN)NC(=O)[C@H](Cc1c[nH]c2ccccc12)NC(=O)[C@@H](N)CCCN=C(N)N)C(=O)N[C@H](C(=O)N[C@H](C(=O)N[C@H](C(=O)N[C@@H](CCCN=C(N)N)C(=O)N[C@@H](CCCCN)C(=O)N[C@@H](CCCN=C(N)N)C(=O)N[C@@H](CCCN=C(N)N)C(N)=O)[C@@H](C)CC)C(C)C)C(C)C [RWKRIVVIRKRR]
